{"source": "ChEMBL document CHEMBL3885861", "about": "“Open TG-GATES”", "species": "Rattus norvegicus", "test": "Open TG-GATES - Regimen: Daily Repeat", "type": "toxicity, organism-based, Sprague-Dawley", "parameters": "regimen Daily Repeat, gender Male, age 6 weeks", "conditions": "in vivo, po, 60 mg/kg, […], route gavage, dose level Low; for KIDNEY_L / KIDNEY_R / KIDNEY_TOTAL: tissue Kidney; for LIVER: tissue Liver; for A/G / ALP / ALT / AST / BUN / CRE / Ca / Cl / DBIL / GLC / IP / K / LDH / Na / PL / RALB / TBIL / TC / TG / TP / gamma-GTP: tissue Plasma"}
{"smiles": "C[C@](N)(Cc1ccc(O)c(O)c1)C(=O)O", "note": "[METHYLDOPA]", "values": [{"measurement": "Lym", "setting": "tissue Blood, time 28 day", "result": 81.2, "unit": "%"}, {"measurement": "MCH", "setting": "tissue Blood, time 28 day", "result": 19.7, "unit": "pg"}, {"measurement": "MCHC", "setting": "tissue Blood, time 28 day", "result": 35, "unit": "%"}, {"measurement": "MCV", "setting": "tissue Blood, time 28 day", "result": 56.4, "unit": "fL"}, {"measurement": "Mono", "setting": "tissue Blood, time 28 day", "result": 2.2, "unit": "%"}, {"measurement": "Neu", "setting": "tissue Blood, time 28 day", "result": 15, "unit": "%"}, {"measurement": "PT", "setting": "tissue Blood, time 28 day", "result": 14, "unit": "s"}, {"measurement": "Plat", "setting": "tissue Blood, time 28 day", "result": 108.7, "unit": "x10_4/uL"}, {"measurement": "RBC", "setting": "tissue Blood, time 28 day", "result": 760.2, "unit": "x10_4/ul"}, {"measurement": "Ret", "setting": "tissue Blood, time 28 day", "result": 2.5, "unit": "%"}, {"measurement": "WBC", "setting": "tissue Blood, time 28 day", "result": 77.4, "unit": "x10_2/uL"}, {"measurement": "KIDNEY_L", "setting": "time 7 day", "result": 1, "unit": "g"}, {"measurement": "KIDNEY_R", "setting": "time 7 day", "result": 1, "unit": "g"}, {"measurement": "KIDNEY_TOTAL", "setting": "time 7 day", "result": 2, "unit": "g"}, {"measurement": "KIDNEY_L", "setting": "time 14 day", "result": 1.1, "unit": "g"}, {"measurement": "KIDNEY_R", "setting": "time 14 day", "result": 1.1, "unit": "g"}, {"measurement": "KIDNEY_TOTAL", "setting": "time 14 day", "result": 2.2, "unit": "g"}, {"measurement": "KIDNEY_L", "setting": "time 28 day", "result": 1.3, "unit": "g"}, {"measurement": "KIDNEY_R", "setting": "time 28 day", "result": 1.3, "unit": "g"}, {"measurement": "KIDNEY_TOTAL", "setting": "time 28 day", "result": 2.6, "unit": "g"}, {"measurement": "LIVER", "setting": "time 7 day", "result": 10.4, "unit": "g"}, {"measurement": "LIVER", "setting": "time 14 day", "result": 12.2, "unit": "g"}, {"measurement": "LIVER", "setting": "time 28 day", "result": 15.2, "unit": "g"}, {"measurement": "A/G", "setting": "time 7 day", "result": 0.9}, {"measurement": "ALP", "setting": "time 7 day", "result": 1395.8, "unit": "IU/L"}, {"measurement": "ALT", "setting": "time 7 day", "result": 43.4, "unit": "IU/L"}, {"measurement": "AST", "setting": "time 7 day", "result": 69.4, "unit": "IU/L"}, {"measurement": "BUN", "setting": "time 7 day", "result": 13.4, "unit": "mg/dL"}, {"measurement": "CRE", "setting": "time 7 day", "result": 0.2, "unit": "mg/dL"}, {"measurement": "Ca", "setting": "time 7 day", "result": 11, "unit": "mg/dL"}, {"measurement": "Cl", "setting": "time 7 day", "result": 106.8, "unit": "meq/L"}, {"measurement": "DBIL", "setting": "time 7 day", "result": 0.008, "unit": "mg/dL"}, {"measurement": "GLC", "setting": "time 7 day", "result": 184, "unit": "mg/dL"}, {"measurement": "IP", "setting": "time 7 day", "result": 7.2, "unit": "mg/dL"}, {"measurement": "K", "setting": "time 7 day", "result": 4.6, "unit": "meq/L"}, {"measurement": "LDH", "setting": "time 7 day", "result": 65.6, "unit": "IU/L"}, {"measurement": "Na", "setting": "time 7 day", "result": 145, "unit": "meq/L"}, {"measurement": "PL", "setting": "time 7 day", "result": 138.8, "unit": "mg/dL"}, {"measurement": "RALB", "setting": "time 7 day", "result": 2.7, "unit": "g/dL"}, {"measurement": "TBIL", "setting": "time 7 day", "result": 0.066, "unit": "mg/dL"}, {"measurement": "TC", "setting": "time 7 day", "result": 87.4, "unit": "mg/dL"}, {"measurement": "TG", "setting": "time 7 day", "result": 51.2, "unit": "mg/dL"}, {"measurement": "TP", "setting": "time 7 day", "result": 5.9, "unit": "g/dL"}, {"measurement": "gamma-GTP", "setting": "time 7 day", "result": 1, "unit": "IU/L"}, {"measurement": "A/G", "setting": "time 14 day", "result": 0.9}, {"measurement": "ALP", "setting": "time 14 day", "result": 1372.2, "unit": "IU/L"}, {"measurement": "ALT", "setting": "time 14 day", "result": 40.6, "unit": "IU/L"}, {"measurement": "AST", "setting": "time 14 day", "result": 61.6, "unit": "IU/L"}, {"measurement": "BUN", "setting": "time 14 day", "result": 13.6, "unit": "mg/dL"}, {"measurement": "CRE", "setting": "time 14 day", "result": 0.2, "unit": "mg/dL"}, {"measurement": "Ca", "setting": "time 14 day", "result": 11.3, "unit": "mg/dL"}, {"measurement": "Cl", "setting": "time 14 day", "result": 106.2, "unit": "meq/L"}, {"measurement": "DBIL", "setting": "time 14 day", "result": 0.01, "unit": "mg/dL"}, {"measurement": "GLC", "setting": "time 14 day", "result": 176.8, "unit": "mg/dL"}, {"measurement": "IP", "setting": "time 14 day", "result": 6.6, "unit": "mg/dL"}, {"measurement": "K", "setting": "time 14 day", "result": 4.3, "unit": "meq/L"}, {"measurement": "LDH", "setting": "time 14 day", "result": 53, "unit": "IU/L"}, {"measurement": "Na", "setting": "time 14 day", "result": 142, "unit": "meq/L"}, {"measurement": "PL", "setting": "time 14 day", "result": 155.8, "unit": "mg/dL"}, {"measurement": "RALB", "setting": "time 14 day", "result": 2.8, "unit": "g/dL"}, {"measurement": "TBIL", "setting": "time 14 day", "result": 0.058, "unit": "mg/dL"}, {"measurement": "TC", "setting": "time 14 day", "result": 89, "unit": "mg/dL"}, {"measurement": "TG", "setting": "time 14 day", "result": 85.2, "unit": "mg/dL"}, {"measurement": "TP", "setting": "time 14 day", "result": 5.9, "unit": "g/dL"}, {"measurement": "gamma-GTP", "setting": "time 14 day", "result": 1, "unit": "IU/L"}, {"measurement": "A/G", "setting": "time 28 day", "result": 0.8}, {"measurement": "ALP", "setting": "time 28 day", "result": 1102.4, "unit": "IU/L"}, {"measurement": "ALT", "setting": "time 28 day", "result": 49.8, "unit": "IU/L"}, {"measurement": "AST", "setting": "time 28 day", "result": 65.6, "unit": "IU/L"}, {"measurement": "BUN", "setting": "time 28 day", "result": 16, "unit": "mg/dL"}, {"measurement": "CRE", "setting": "time 28 day", "result": 0.2, "unit": "mg/dL"}, {"measurement": "Ca", "setting": "time 28 day", "result": 11.1, "unit": "mg/dL"}, {"measurement": "Cl", "setting": "time 28 day", "result": 106.6, "unit": "meq/L"}, {"measurement": "DBIL", "setting": "time 28 day", "result": 0.018, "unit": "mg/dL"}, {"measurement": "GLC", "setting": "time 28 day", "result": 180.2, "unit": "mg/dL"}, {"measurement": "IP", "setting": "time 28 day", "result": 5.8, "unit": "mg/dL"}, {"measurement": "K", "setting": "time 28 day", "result": 4.2, "unit": "meq/L"}, {"measurement": "LDH", "setting": "time 28 day", "result": 47.6, "unit": "IU/L"}, {"measurement": "Na", "setting": "time 28 day", "result": 143.6, "unit": "meq/L"}, {"measurement": "PL", "setting": "time 28 day", "result": 147, "unit": "mg/dL"}, {"measurement": "RALB", "setting": "time 28 day", "result": 2.7, "unit": "g/dL"}, {"measurement": "TBIL", "setting": "time 28 day", "result": 0.058, "unit": "mg/dL"}, {"measurement": "TC", "setting": "time 28 day", "result": 77, "unit": "mg/dL"}, {"measurement": "TG", "setting": "time 28 day", "result": 101.6, "unit": "mg/dL"}, {"measurement": "TP", "setting": "time 28 day", "result": 6.1, "unit": "g/dL"}, {"measurement": "gamma-GTP", "setting": "time 28 day", "result": 1, "unit": "IU/L"}]}
